Source: patent US20040241154A1, “Secretin for the treatment of asthma” (priority 2001, published 2004)
Each block holds one molecule with its values, some of them ahead of it.

Legend:
[1] = tested on: primary human, tertiary bronchial epithelial cells; assay: Cl- efflux from primary human tertiary bronchial epithelial cells (MQAE fluorescence); format: cell-based
Procedure: Ionic movement in tertiary bronchial epithelial cells was further characterised with the use of the Cl^− specific fluorescent probe MQAE (n-(ethoxycarbonylmethyl)-6-methoxyquinolinium bromide; Molecular Probes). In brief, primary human, tertiary bronchial epithelial cells were isolated as described above and cultured in a 96 well plate. On reaching confluency, cells were loaded overnight with 4 mM MQAE. Cells were washed in a chloride containing HEPES buffer, before passive Cl^− efflux was initiated by the addition of a Cl^− free buffer.
The experiment of example 3a above was repeated using a range of secretin concentrations from 1 to 1000 nM.

[2] = tested on: epithelial cells derived from the human tertiary bronchus; assay: Short circuit current in cultured tertiary bronchial epithelial cell monolayers in modified Ussing chamber; format: cell-based
Excerpt: Functional effects of the secretin receptor were probed in epithelial cells derived from the human tertiary bronchus. In brief, tertiary bronchial epithelial were isolated by overnight protease digestion and then cultured until confluency on Snapwell (Costar) permeable supports. The supports were mounted in a modified Ussing chamber, and both luminal and basolateral membranes were bathed in oxygenated Krebs extracellular solution. The cells were voltage clamped to zero to allow changes in short circuit current in response to secretin to be measured. As previously described, 10 μM amiloride was initially added to the luminal membrane (FIG. 4, point a) followed by the addition of 100 nM secretin to the luminal membrane (FIG. 4, point b).

[3] = tested on: tertiary bronchial rings; assay: Relaxation of carbachol precontracted human tertiary bronchial rings in organ bath
Procedure: The bronchorelaxant properties of secretin was examined in vitro, in the tertiary bronchus of non-diseased tissue. […] Tissues were precontracted with carbachol at the concentration being that which caused a contraction approximately 60-70% of the maximum, and a cumulative concentration-effect contractile curve (CEC) to secretin (0.01 μM to 3 μM) was constructed on each preparation.

[4] = tested on: human tertiary bronchus; assay: Short circuit current across human tertiary bronchus wall in modified Ussing chamber
[5] = 10 μM ATP or UTP added to apical membrane of the lung epithelium

SMILES: O=C(O)c1cc([N+](=O)[O-])ccc1NCCCc1ccccc1 [NPPB, 5-nitro-2-(3-phenylpropyl-amino)benzoic acid]
effect on 100 nM secretin mediated changes in fluorescence ([1]; 100 μM NPPB): abolished

mean pEC50, relaxation ([3]; carbachol precontracted tertiary bronchial rings): 6.8±0.2
SMILES: CC(C)C[C@H](NC(=O)CNC(=O)[C@H](CCC(N)=O)NC(=O)[C@H](CC(C)C)NC(=O)[C@H](CC(C)C)NC(=O)[C@H](CCCNC(=N)N)NC(=O)[C@H](CCC(N)=O)NC(=O)[C@H](CC(C)C)NC(=O)[C@H](CCCNC(=N)N)NC(=O)[C@H](C)NC(=O)CNC(=O)[C@H](CCC(=O)O)NC(=O)[C@H](CCCNC(=N)N)NC(=O)[C@H](CC(C)C)NC(=O)[C@H](CCCNC(=N)N)NC(=O)[C@H](CO)NC(=O)[C@H](CC(C)C)NC(=O)[C@H](CCC(=O)O)NC(=O)[C@H](CO)NC(=O)[C@@H](NC(=O)[C@H](Cc1ccccc1)NC(=O)[C@@H](NC(=O)CNC(=O)[C@H](CC(=O)O)NC(=O)[C@H](CO)NC(=O)[C@@H](N)Cc1c[nH]cn1)[C@@H](C)O)[C@@H](C)O)C(=O)N[C@H](C(N)=O)C(C)C [secretin]
ionic movement (short circuit current) ([2]; 100 nM secretin added to luminal membrane after 10 μM amiloride): stimulated ionic movement in a manner consistent with the movement of a negatively charged ion
Cl- efflux (changes in MQAE fluorescence) ([1]; 12.5 nM secretin): stimulated Cl^− efflux
Cl- efflux (changes in MQAE fluorescence) ([1]; 100 nM secretin): stimulated Cl^− efflux
Maximal secretin stimulated Cl- efflux ([1]; compared with Prostaglandin E2 (10 μM), secretin 1 to 1000 nM): of a similar magnitude to that observed to Prostaglandin E2
Log EC50 (M), Cl- efflux ([1]; printed as negative Log EC50, mean ± s.e.mean, 2 to 6 independent experiments, cells from 6 donors, normalised to PGE2): -7.64±0.24 M
relaxations of the carbachol-evoked tone ([3]; secretin 0.01 μM to 3 μM, in 7 of the 8 preparations tested): concentration-dependent relaxations
mean relaxation as % of the relaxation observed to isoprenaline (1 μM) ([3]; secretin 3 μM, n=7 preparations from 4 donors): 37±11%
ionic movement (short circuit current) ([4]; 3 μM human secretin added to luminal membrane after 10 μM amiloride, non-asthma donors): stimulate ionic movement in a manner consistent with the movement of a negatively charged ion

SMILES: Nc1ncnc2c1ncn2[C@@H]1O[C@H](COP(=O)(O)OP(=O)(O)OP(=O)(O)O)[C@@H](O)[C@H]1O [ATP]
ionic movement (short circuit current) [4, 5]: stimulate a similar ionic movement of similar magnitude

SMILES: COc1ccc(Cl)cc1C(=O)NCCc1ccc(S(=O)(=O)NC(=O)NC2CCCCC2)cc1 [glibenclamide]
suppression of secretin mediated ionic movement ([2]; 500 μM glibenclamide after 100 nM secretin): failed to suppress secretin mediated ionic movement

SMILES: O=c1ccn([C@@H]2O[C@H](COP(=O)(O)OP(=O)(O)OP(=O)(O)O)[C@@H](O)[C@H]2O)c(=O)[nH]1 [UTP]
ionic movement (short circuit current) [4, 5]: stimulate a similar ionic movement of similar magnitude
